Experimental findings from ChEMBL document CHEMBL1909046, “DrugMatrix in vitro pharmacology data” are described below.

For orientation: IC50 means the concentration that gives 50% inhibition. A lower IC50 goes with higher potency. Usually Ki stands for the dissociation constant of the complex between target and ligand, obtained from inhibition or displacement. Read a high Ki as a looser hold on the target.

Assay [1] deals with T1, Androgen receptor (Rattus norvegicus, UniProt P15207).
T1 sequence (P15207 whole entry): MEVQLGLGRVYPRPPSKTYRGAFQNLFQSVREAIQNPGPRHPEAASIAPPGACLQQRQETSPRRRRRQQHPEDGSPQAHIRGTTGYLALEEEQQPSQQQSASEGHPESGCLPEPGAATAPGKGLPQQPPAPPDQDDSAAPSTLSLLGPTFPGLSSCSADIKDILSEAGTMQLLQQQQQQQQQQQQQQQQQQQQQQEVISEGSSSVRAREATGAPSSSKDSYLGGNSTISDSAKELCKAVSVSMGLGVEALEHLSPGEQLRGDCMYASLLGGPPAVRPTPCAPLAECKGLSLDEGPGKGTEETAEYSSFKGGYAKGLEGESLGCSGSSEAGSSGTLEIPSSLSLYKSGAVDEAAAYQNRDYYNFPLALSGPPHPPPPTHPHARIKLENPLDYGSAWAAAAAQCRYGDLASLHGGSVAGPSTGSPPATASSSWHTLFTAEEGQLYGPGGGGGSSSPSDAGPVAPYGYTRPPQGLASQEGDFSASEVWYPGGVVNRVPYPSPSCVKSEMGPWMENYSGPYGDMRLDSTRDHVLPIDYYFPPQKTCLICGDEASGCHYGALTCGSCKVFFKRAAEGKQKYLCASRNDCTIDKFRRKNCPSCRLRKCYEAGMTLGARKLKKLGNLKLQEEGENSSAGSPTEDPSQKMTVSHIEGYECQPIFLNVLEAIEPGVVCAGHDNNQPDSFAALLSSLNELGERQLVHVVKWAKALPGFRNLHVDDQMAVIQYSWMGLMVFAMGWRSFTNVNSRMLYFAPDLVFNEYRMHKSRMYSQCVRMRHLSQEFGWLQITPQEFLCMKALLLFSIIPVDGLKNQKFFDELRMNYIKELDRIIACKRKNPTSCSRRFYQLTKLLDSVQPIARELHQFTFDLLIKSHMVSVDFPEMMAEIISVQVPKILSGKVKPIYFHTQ

The target of assay [2] is Cytochrome P450 2C19 (Homo sapiens, UniProt P33261).
Sequence of Cytochrome P450 2C19 (P33261 whole entry): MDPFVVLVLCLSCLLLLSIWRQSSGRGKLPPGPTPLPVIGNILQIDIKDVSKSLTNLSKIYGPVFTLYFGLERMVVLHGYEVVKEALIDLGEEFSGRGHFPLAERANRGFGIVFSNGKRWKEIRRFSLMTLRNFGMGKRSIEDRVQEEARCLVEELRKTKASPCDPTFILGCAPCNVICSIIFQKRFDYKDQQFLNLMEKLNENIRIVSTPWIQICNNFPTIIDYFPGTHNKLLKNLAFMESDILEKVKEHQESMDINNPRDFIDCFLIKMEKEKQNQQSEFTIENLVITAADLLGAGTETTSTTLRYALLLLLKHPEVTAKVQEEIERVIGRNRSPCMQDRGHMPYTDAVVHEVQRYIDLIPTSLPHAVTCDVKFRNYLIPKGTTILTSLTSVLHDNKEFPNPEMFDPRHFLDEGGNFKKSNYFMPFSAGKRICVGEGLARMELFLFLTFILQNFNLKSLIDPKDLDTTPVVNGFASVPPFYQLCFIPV
The target in assay [3] is Glycine receptor (Rattus norvegicus, UniProt P07727+P20781+P22771+P24524). In kind it is cell membranes, Wistar, Spinal cord, Membrane.
Sequence of Glycine receptor (P22771 whole entry): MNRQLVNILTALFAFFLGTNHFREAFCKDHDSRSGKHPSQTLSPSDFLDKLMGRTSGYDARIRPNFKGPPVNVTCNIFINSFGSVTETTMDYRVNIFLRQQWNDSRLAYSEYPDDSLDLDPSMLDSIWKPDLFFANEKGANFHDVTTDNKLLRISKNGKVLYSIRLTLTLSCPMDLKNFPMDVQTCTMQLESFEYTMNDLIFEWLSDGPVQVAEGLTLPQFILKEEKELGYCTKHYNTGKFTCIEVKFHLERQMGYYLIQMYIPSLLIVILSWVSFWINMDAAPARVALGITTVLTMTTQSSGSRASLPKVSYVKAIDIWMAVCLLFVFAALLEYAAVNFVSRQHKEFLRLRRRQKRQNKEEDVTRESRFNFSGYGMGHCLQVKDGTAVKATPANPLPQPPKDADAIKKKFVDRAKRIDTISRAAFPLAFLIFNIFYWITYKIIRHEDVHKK
Sequence of Glycine receptor (P24524 whole entry): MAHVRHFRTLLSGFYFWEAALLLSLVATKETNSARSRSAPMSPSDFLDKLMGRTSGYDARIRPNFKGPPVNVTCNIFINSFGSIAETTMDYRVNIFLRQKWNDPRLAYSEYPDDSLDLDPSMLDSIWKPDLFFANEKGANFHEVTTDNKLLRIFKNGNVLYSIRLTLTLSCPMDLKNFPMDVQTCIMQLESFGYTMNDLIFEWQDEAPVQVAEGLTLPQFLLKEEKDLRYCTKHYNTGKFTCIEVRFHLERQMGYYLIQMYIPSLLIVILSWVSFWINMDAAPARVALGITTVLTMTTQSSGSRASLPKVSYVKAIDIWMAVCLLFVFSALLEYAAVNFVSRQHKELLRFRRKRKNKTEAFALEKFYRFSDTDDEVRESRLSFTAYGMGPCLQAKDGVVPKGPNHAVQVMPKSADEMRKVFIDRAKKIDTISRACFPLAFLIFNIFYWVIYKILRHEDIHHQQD
Sequence of Glycine receptor (P07727 whole entry): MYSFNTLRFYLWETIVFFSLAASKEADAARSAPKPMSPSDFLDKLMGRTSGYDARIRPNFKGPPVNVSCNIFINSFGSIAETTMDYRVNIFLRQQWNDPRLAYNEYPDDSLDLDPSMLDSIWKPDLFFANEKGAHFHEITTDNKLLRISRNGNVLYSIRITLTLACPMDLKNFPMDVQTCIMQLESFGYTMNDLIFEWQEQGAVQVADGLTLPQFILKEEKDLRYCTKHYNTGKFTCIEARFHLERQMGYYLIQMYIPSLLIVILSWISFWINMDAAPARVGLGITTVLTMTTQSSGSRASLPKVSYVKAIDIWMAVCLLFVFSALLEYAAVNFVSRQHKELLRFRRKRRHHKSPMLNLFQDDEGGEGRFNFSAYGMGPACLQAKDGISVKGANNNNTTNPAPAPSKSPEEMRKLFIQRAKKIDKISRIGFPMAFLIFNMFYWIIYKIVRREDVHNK
Sequence of Glycine receptor (P20781 whole entry): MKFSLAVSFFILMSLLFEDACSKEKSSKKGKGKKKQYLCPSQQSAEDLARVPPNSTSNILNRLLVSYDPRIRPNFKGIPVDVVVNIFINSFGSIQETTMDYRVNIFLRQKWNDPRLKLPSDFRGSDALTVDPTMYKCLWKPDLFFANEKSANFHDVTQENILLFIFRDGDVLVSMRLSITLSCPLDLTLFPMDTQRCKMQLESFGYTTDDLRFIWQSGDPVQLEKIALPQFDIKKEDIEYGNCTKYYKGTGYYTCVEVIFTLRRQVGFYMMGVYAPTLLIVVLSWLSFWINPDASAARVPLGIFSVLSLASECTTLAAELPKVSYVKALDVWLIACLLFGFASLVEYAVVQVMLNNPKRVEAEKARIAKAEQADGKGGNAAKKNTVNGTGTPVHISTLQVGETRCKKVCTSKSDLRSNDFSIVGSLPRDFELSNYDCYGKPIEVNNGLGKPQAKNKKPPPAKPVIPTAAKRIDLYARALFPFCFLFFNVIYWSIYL

`Clc1ccc(COC(Cn2ccnc2)c2ccc(Cl)cc2Cl)c(Cl)c1` (stereo not given) [MICONAZOLE]: in assay [1], the IC50 was 7.09 µM and the Ki was determined as 4.73 µM.
Turning to `C[S+]([O-])c1ccc(-c2nc(-c3ccncc3)c(-c3ccc(F)cc3)[nH]2)cc1` (stereo not given) [SB-203580], 0.8 µM corresponded to half-maximal inhibition in assay [2] (IC50).
In assay [3], `O=C1C[C@@H]2OCC=C3CN4CC[C@]56c7ccccc7N1[C@H]5[C@H]2[C@H]3C[C@H]46` [STRYCHNINE] yielded an IC50 of 0.0083 µM and a Ki of 0.00469 µM.
